Results as given in PMC4503950, “EGCG reverses human neutrophil elastase-induced migration in A549 cells by directly binding to HNE and by regulating α1-AT” (Scientific Reports, 2015).

Biological target: T1, human neutrophil elastase (HNE) (Homo sapiens, UniProt P08246)
T1 construct: gene ELANE; Recombinant HNE protein (molecular mass, 25 kDa)
T1 sequence (P08246 30-247): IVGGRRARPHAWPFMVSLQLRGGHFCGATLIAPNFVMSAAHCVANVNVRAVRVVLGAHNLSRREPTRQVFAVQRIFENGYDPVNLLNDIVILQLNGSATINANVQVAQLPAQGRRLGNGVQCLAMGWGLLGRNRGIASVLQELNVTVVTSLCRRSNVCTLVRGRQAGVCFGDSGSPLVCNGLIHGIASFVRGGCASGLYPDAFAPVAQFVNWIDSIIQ
Assay: SPR (Biacore […], HNE immobilized on CM5 chip, […] Langmuir fit); also enzyme inhibition with IC50 […]
Assay type: binding

`O=C(OC1Cc2c(O)cc(O)cc2OC1c1cc(O)c(O)c(O)c1)c1cc(O)c(O)c(O)c1` (stereo not shown) [EGCG] showed a Kd of 41.4 µM.
